In this assay the test system is purified m-OGT. Description: Km of UDP-GlcNAc in RBL-2 peptide O-GlcNAcylation on microarray. Format: biochemical, human. The conditions noted are these: fixed saturating RBL-2_410–422 peptide, purified m-OGT (0.2 μg/μL), UDP-GlcNAc 0–2 mM, Michaelis-Menten fit; read-out: Km of UDP-GlcNAc donor. On the procedure:
One step OGT purification was performed using His60 Ni Gravity Flow Columns (Clontech) according to the manufacturer’s instructions. Briefly, the nickel column was equilibrated with a buffer containing 50 mM sodium phosphate, 300 sodium chloride, 20 mM imidazole, and pH 7.4, followed by incubation with cell lysate containing His tag OGT for 1h at 4°C. After washing several times using buffer containing 50 mM sodium phosphate, 300 sodium chloride, 40 mM imidazole, and pH 7.4, the recombinant OGT was eluted using elution buffer containing 50 mM sodium phosphate, 300 mM sodium chloride, 300 mM imidazole, and pH 7.4. […]
Peptide O-GlcNAcylation was assessed using PamChip 4 microarray chips with a PamStation 12 instrument (Pamgene international, The Netherlands). […] O-GlcNAcylation of each peptide was detected by a fluorescent signal which was produced by an FITC conjugated antibody bound to the O-GlcNAc moiety on the peptide.
Image analysis was performed using BioNavigator 6 software (Pamgene international, The Netherlands). Briefly, each image was quantified by automated array grid finding and subsequent quantification of signal and local background for each individual spot. In this work, the signal median-minus-background value was used as the quantitative parameter for the O-GlcNAcylation of the peptide. […]

Structures are written as SMILES. Where a name gives a salt, the structure may show the parent alone.

Regarding `CC(=O)N[C@H]1[C@@H](OP(=O)(O)OP(=O)(O)OC[C@H]2O[C@@H](n3ccc(=O)[nH]c3=O)[C@H](O)[C@@H]2O)O[C@H](CO)[C@@H](O)[C@@H]1O` [UDP-GlcNAc, Uridine 5′-diphospho-N-acetylglucosamine sodium salt], the Michaelis constant (Km) (commonly the concentration of substrate that gives half-maximal velocity) came out at 24 µM.
